From ChEMBL document CHEMBL5614443, “Hybrids of 3-Hydroxypyridin-4(1H)-ones and Long-Chain 4-Aminoquinolines as Potent Biofilm Inhibitors of Pseudomonas aeruginosa Potentiate Tobramycin and Polymyxin B Activity” (J Med Chem, 2024)
Activity calls are given as the source filed them. The calls are words filed in the database; no cut-off is given here.

Columns and labels:
[1] = test system: Pseudomonas aeruginosa; test: Antivirulence activity in Pseudomonas aeruginosa clinical isolate 1167 assessed as reduction in pyocyanin production at 10 uM incubated for 24 hrs by absorbance based analysis; type: functional, organism-based
[2] = test system: Pseudomonas aeruginosa; test: Antibacterial activity against Pseudomonas aeruginosa clinical isolate 1065 assessed as inhibition of bacterial growth incubated for 24 hrs by CLSI protocol based method; type: functional, organism-based
[3] = test system: Pseudomonas aeruginosa; test: Synergistic antibacterial activity against Pseudomonas aeruginosa PAO1 assessed as reduction in cell viability at 10 to 50 uM incubated for 24 hrs in the presence of 1/8 MIC of polymyxin B by LB agar plate method; type: functional, organism-based; conditions: dose 10-50 µM
[4] = test system: Pseudomonas aeruginosa; test: Antibacterial activity against Pseudomonas aeruginosa clinical isolate 0617 assessed as inhibition of bacterial growth incubated for 24 hrs by CLSI protocol based method; type: functional, organism-based
[5] = Cytotoxicity against African green monkey Vero cells assessed as reduction in cell viability incubated for 24 hrs by MTT assay; type: toxicity, cell-based; conditions: chlorocebus sabaeus
[6] = test system: Pseudomonas aeruginosa; test: Antibacterial activity against Pseudomonas aeruginosa PAO1 infected in Caenorhabditis elegans assessed as worm survival at 10 uM by bright-field microscopic analysis (reference value: 24 hrs); type: functional
[7] = test system: Pseudomonas aeruginosa; test: Antibacterial activity against Pseudomonas aeruginosa PAO1 infected in Caenorhabditis elegans assessed as worm survival at 50 uM by bright-field microscopic analysis (reference value: 24 hrs); type: functional
[8] = test system: Pseudomonas aeruginosa; test: Antivirulence activity in Pseudomonas aeruginosa clinical isolate 1121 assessed as reduction in elastase production at 10 uM incubated for 24 hrs by elastin-congo red dye based absorbance assay; type: functional, organism-based
[9] = test system: Pseudomonas aeruginosa; test: Synergistic antibacterial activity against Pseudomonas aeruginosa PAO1 assessed as reduction in cell viability at 10 to 50 uM incubated for 24 hrs in the presence of 1/4 MIC of tobramycin by LB agar plate method; type: functional, organism-based; conditions: dose 10-50 µM
[10] = test system: Pseudomonas aeruginosa; test: Synergistic antibacterial activity against Pseudomonas aeruginosa clinical isolate 1167 assessed as reduction in bacterial viability at 10 to 50 uM incubated for 24 hrs in presence of 1/4 MIC of polymyxin B by LB agar plate method; type: functional, organism-based; conditions: dose 10-50 µM
[11] = test system: Pseudomonas aeruginosa; test: Synergistic antibacterial activity against Pseudomonas aeruginosa PAO1 assessed as fold reduction in bacterial survival rate incubated for 24 hrs in presence of erythromycin by LB agar plate method; type: functional
[12] = test system: Pseudomonas aeruginosa; test: Antibacterial activity against Pseudomonas aeruginosa PA14 assessed as inhibition of bacterial growth incubated for 24 hrs by CLSI protocol based method; type: functional, organism-based
[13] = test system: Pseudomonas aeruginosa; test: Antibacterial activity against Pseudomonas aeruginosa PAO1 assessed as inhibition of bacterial growth at 0.1 to 50 uM measured upto 24 hrs by CLSI protocol based method; type: functional, organism-based; conditions: dose 0.1-50 µM
[14] = test system: Pseudomonas aeruginosa; test: Synergistic antibacterial activity against Pseudomonas aeruginosa clinical isolate 1167 assessed as reduction in bacterial viability at 10 to 50 uM incubated for 24 hrs in presence of 1/2 MIC of tobramycin by LB agar plate method; type: functional, organism-based; conditions: dose 10-50 µM
[15] = test system: Pseudomonas aeruginosa; test: Antibiofilm activity against Pseudomonas aeruginosa clinical isolate 0815 assessed as reduction in biofilm content at 10 uM incubated for 24 hrs by crystal violet staining based analysis; type: functional, organism-based
[16] = Inhibition of quorum sensing system in wildtype Pseudomonas aeruginosa PAO1 assessed as inhibition of elastase production incubated for 24 hrs by elastin-congo red dye based absorbance assay
[17] = test system: Pseudomonas aeruginosa; test: Antibacterial activity against Pseudomonas aeruginosa clinical isolate FB assessed as inhibition of bacterial growth incubated for 24 hrs by CLSI protocol based method; type: functional, organism-based
[18] = test system: Pseudomonas aeruginosa; test: Antibiofilm activity against Pseudomonas aeruginosa clinical isolate 1121 assessed as reduction in biofilm content at 10 uM incubated for 24 hrs by crystal violet staining based analysis; type: functional, organism-based
[19] = test system: Pseudomonas aeruginosa; test: Antibacterial activity against Pseudomonas aeruginosa PAO1 assessed as inhibition of bacterial growth incubated for 24 hrs by CLSI protocol based method; type: functional
[20] = Inhibition of quorum sensing system in Pseudomonas aeruginosa PAO1 transfected with mini-ctx-lasB-lacZ reporter gene assessed as decrease in beta-galactosidase activity incubated for 6 hrs by Miller assay; conditions: dose 1.25-20 µM
[21] = test system: Pseudomonas aeruginosa; test: Synergistic antibacterial activity against Pseudomonas aeruginosa clinical isolate 1121 assessed as reduction in bacterial viability at 10 to 50 uM incubated for 24 hrs in presence of 1/8 MIC of tobramycin by LB agar plate method; type: functional, organism-based; conditions: dose 10-50 µM
[22] = test system: Pseudomonas aeruginosa; test: Synergistic antibacterial activity against Pseudomonas aeruginosa clinical isolate 1167 assessed as reduction in bacterial viability at 10 to 50 uM incubated for 24 hrs in presence of 1/4 MIC of tobramycin by LB agar plate method; type: functional, organism-based; conditions: dose 10-50 µM
[23] = test system: Pseudomonas aeruginosa; test: Antivirulence activity in Pseudomonas aeruginosa clinical isolate 0815 assessed as reduction in elastase production at 10 uM incubated for 24 hrs by elastin-congo red dye based absorbance assay; type: functional, organism-based
[24] = test system: Pseudomonas aeruginosa; test: Antivirulence activity in Pseudomonas aeruginosa clinical isolate 1121 assessed as reduction in pyocyanin production at 10 uM incubated for 24 hrs by absorbance based analysis; type: functional, organism-based
[25] = test system: Pseudomonas aeruginosa; test: Synergistic antibacterial activity against Pseudomonas aeruginosa clinical isolate 1121 assessed as reduction in bacterial viability at 10 to 50 uM incubated for 24 hrs in presence of 1/4 MIC of polymyxin B by LB agar plate method; type: functional, organism-based; conditions: dose 10-50 µM
[26] = test system: Pseudomonas aeruginosa; test: Synergistic antibacterial activity against Pseudomonas aeruginosa clinical isolate 0815 assessed as reduction in bacterial viability at 10 to 50 uM incubated for 24 hrs in presence of 1/8 MIC of tobramycin by LB agar plate method; type: functional, organism-based; conditions: dose 10-50 µM
[27] = test system: Pseudomonas aeruginosa; test: Antibiofilm activity against Pseudomonas aeruginosa PAO1 assessed as inhibition of biofilm formation incubated for 24 hrs by crystal violet staining based analysis; type: functional, organism-based; conditions: PAO1, 24 h
[28] = test system: Pseudomonas aeruginosa; test: Synergistic antibacterial activity against Pseudomonas aeruginosa PAO1 assessed as fold reduction in bacterial survival rate incubated for 24 hrs in presence of ciprofloxacin by LB agar plate method; type: functional
[29] = test system: Pseudomonas aeruginosa; test: Synergistic antibacterial activity against Pseudomonas aeruginosa clinical isolate 1121 assessed as reduction in bacterial viability at 10 to 50 uM incubated for 24 hrs in presence of 1/2 MIC of tobramycin by LB agar plate method; type: functional, organism-based; conditions: dose 10-50 µM
[30] = test system: Pseudomonas aeruginosa; test: Synergistic antibacterial activity against Pseudomonas aeruginosa PAO1 assessed as fold reduction in bacterial survival rate at 50 uM incubated for 24 hrs in presence of 1/2 MIC of tobramycin by LB agar plate method relative to tobramycin alone; type: functional
[31] = Metal chelating activity assessed as Fe3+ chelation by measuring iron chelation constant by fluorescence competition assay
[32] = test system: Pseudomonas aeruginosa; test: Antibacterial activity against Pseudomonas aeruginosa PAO1 infected in Caenorhabditis elegans assessed as worm survival rate at 10 uM measured after 96 hrs in presence of polymyxin B at 1/2 MIC by bright field microscopic analysis relative to control; type: functional
[33] = test system: Pseudomonas aeruginosa; test: Antibacterial activity against Pseudomonas aeruginosa 27853 assessed as inhibition of bacterial growth incubated for 24 hrs by CLSI protocol based method; type: functional, organism-based
[34] = test system: Pseudomonas aeruginosa; test: Antibacterial activity against Pseudomonas aeruginosa PAO1 infected in Caenorhabditis elegans assessed as worm survival rate at 50 uM measured after 96 hrs in presence of polymyxin B at 1/2 MIC by bright field microscopic analysis relative to control; type: functional
[35] = test system: Pseudomonas aeruginosa; test: Antibacterial activity against Pseudomonas aeruginosa clinical isolate 0815 assessed as inhibition of bacterial growth incubated for 24 hrs by CLSI protocol based method; type: functional, organism-based
[36] = test system: Pseudomonas aeruginosa; test: Antibacterial activity against Pseudomonas aeruginosa clinical isolate 0808 assessed as inhibition of bacterial growth incubated for 24 hrs by CLSI protocol based method; type: functional, organism-based

**Q.** Which Activity [1] does the source give for `Cc1cc(=O)c(O)c(C(=O)NCCCCCCCCNc2ccnc3cc(Cl)ccc23)n1C.Cl` here?
**A.** The Activity was “Active”.

**Q.** And the Activity [2]?
**A.** The Activity was “inactive”.

**Q.** And the Activity [3]?
**A.** The Activity was “Active”.

**Q.** And the Activity [4]?
**A.** Its Activity is “inactive”.

**Q.** What about the CC50 at 24 h [5] of the same molecule?
**A.** Its CC50 at 24 h is > 800 µM.

**Q.** What about the Survival [6] of the same molecule?
**A.** Its Survival is 32 h.

**Q.** And the Survival [7]?
**A.** Its Survival is 56 h.

**Q.** And the Activity [8]?
**A.** The Activity was “Active”.

**Q.** What about the Activity [9] of the same molecule?
**A.** Its Activity is “Active”.

**Q.** What about the Activity [10] of the same molecule?
**A.** Its Activity is “Active”.

**Q.** What about the “fold change (FC)” value [11] of the same molecule?
**A.** Its value is <10.

**Q.** And the Activity [12]?
**A.** The Activity was “inactive”.

**Q.** What about the Activity [13] of the same molecule?
**A.** Its Activity is “inactive”.

**Q.** What about the Activity [14] of the same molecule?
**A.** Its Activity is “Active”.

**Q.** And the Activity [15]?
**A.** The Activity was “Active”.

**Q.** And the IC50 [16]?
**A.** The IC50 was 16.7 µM.

**Q.** And the Activity [17]?
**A.** The Activity was “inactive”.

**Q.** What about the Activity [18] of the same molecule?
**A.** Its Activity is “Active”.

**Q.** And the MIC [19]?
**A.** The MIC was ≥ 512 µM.

**Q.** What about the inhibition [20] of the same molecule?
**A.** The inhibition was “Dose-Dependent Effect”.

**Q.** What about the Activity [21] of the same molecule?
**A.** Its Activity is “Active”.

**Q.** What about the Activity [22] of the same molecule?
**A.** Its Activity is “Active”.

**Q.** What about the Activity [23] of the same molecule?
**A.** The Activity was “Active”.

**Q.** What about the Activity [24] of the same molecule?
**A.** The Activity was “Active”.

**Q.** What about the Activity [25] of the same molecule?
**A.** The Activity was “Active”.

**Q.** What about the Activity [26] of the same molecule?
**A.** Its Activity is “Active”.

**Q.** And the IC50 [27]?
**A.** The IC50 was 5.8 µM.

**Q.** What about the “fold change (FC)” value [28] of the same molecule?
**A.** Its value is <10.

**Q.** And the Activity [29]?
**A.** The Activity was “Active”.

**Q.** What about the “fold change (FC)” value [30] of the same molecule?
**A.** The value was ~60.

**Q.** What about the pFe3+ [31] of the same molecule?
**A.** The pFe3+ was 20.6.

**Q.** And the survival at 10 µM [32]?
**A.** The survival at 10 µM was 32.1%.

**Q.** And the Activity [33]?
**A.** Its Activity is “inactive”.

**Q.** And the survival at 50 µM [34]?
**A.** Its survival at 50 µM is 91.2%.

**Q.** What about the Activity [35] of the same molecule?
**A.** The Activity was “inactive”.

**Q.** What about the Activity [36] of the same molecule?
**A.** Its Activity is “inactive”.
